Measured values taken from US10806746B2, “Di- and tri-cationic glycosylated antitumor ether lipids, L-gucosylated gaels and rhamnose-linked gaels as cytotoxic agents against epithelial cancer cells and cancer stem cells” (The University of Manitoba, priority 2014, dated 2020).
Where two headings read alike, the source gives them in different places.

Legend:
Assay type in all cases: cell-based, human
MDA-MB-231 cells = assay: MTS viability assay, MDA-MB-231 breast cancer cells
Description: (§1) FIG. 2A. Effects of compounds 1-11 on the viability of MDA-MB231 cells. MDA-MB-231 cells were cultured in DMEM medium supplemented with 10% FBS. Equal numbers were dispersed into 96-well plates. After 24 h, the cells were incubated with compounds 1-11 (0-30 μM) for 48 h. At the end of the incubation, MTS reagent (20% vol/vol) was added and the plates were incubated for 1-4 h. The OD490 was read with a plate reader. Wells with media but no cells were treated in similar fashion and the values utilized as blank. The results represent the mean±standard deviation of 6 independent determinations.
as §1, with “2K.” for “2A.”, “1, 69-72” for “1-11”, “MDA-MB-231” for “MDA-MB231”, “1, 69-72” for “1-11 (0-30 μM)”
(§2) The cell lines were cultured from frozen stocks originally obtained from ATCC. MDA-MB-231, JIMT-1, DU145, U81, U251 cells were grown in DMEM medium. BT474, A2780s, A2780cp cells were grown in DMEM/F12 medium supplemented with 10% FBS. MiaPaCa2 was cultured in DMEM supplemented with 10% FBS and 2.5% horse serum. PC3 cells were cultured in F12K medium supplemented with 10% FBS. All the media were supplemented with penicillin/streptomycin.
(§3) The effects of the GAELs on the viability of the various epithelial cancer cell lines was determined as previously described. Briefly, equal numbers of the cells were dispersed into 96-well plates. After 24 h, the cells were incubated with the compounds (0-30 μM) for 48 h. At the end of the incubation, MTS reagent (20% vol/vol) was added and the plates were incubated for 1-4 h. The OD490 was read with a plate reader. Wells with media but no cells were treated in similar fashion and the values utilized as blank. The results represent the mean±standard deviation of 6 independent determinations.

DU145 cells = assay: MTS viability assay, DU145 prostate cancer cells
Description: as §1, with “2D.” for “2A.”, “DU145” for “MDA-MB231”, “DU145” for “MDA-MB-231”
as §1, with “2H. Effect” for “2A. Effects”, “1, 69-72” for “1-11”, “DU145” for “MDA-MB231”, “DU145” for “MDA-MB-231”, “1, 69-72” for “1-11 (0-30 μM)”
as §2, §3

MiaPaCa2 cells = assay: MTS viability assay, MiaPaCa2 pancreas cancer cells
Description: as §1, with “2F.” for “2A.”, “MiaPaCa2” for “MDA-MB231”, “MiaPaCa2” for “MDA-MB-231”, “FBS and 2.5% horse serum.” for “FBS.”
as §1, with “2I.” for “2A.”, “1, 69-72” for “1-11”, “MiaPaCa2” for “MDA-MB231”, “MiaPaCa2” for “MDA-MB-231”, “FBS and 2.5% horse serum.” for “FBS.”, “1, 69-72” for “1-11 (0-30 μM)”
as §2, §3

PC3 cells = assay: MTS viability assay, PC3 prostate cancer cells
Description: as §1, with “2E.” for “2A.”, “PC3” for “MDA-MB231”, “PC3” for “MDA-MB-231”, “F12K” for “DMEM”
as §2, §3

[1] = tested on: BT-474, JIMT-1, MDA-MB-231 (breast), DU145, PC3 (prostate), MiaPaCa2 (pancreas); assay: MTS viability, panel of epithelial cancer cell lines (ranges over the cell lines); conditions: for CC50: read-out: CC50 values, range depending on the cell line
Description: To determine the effect of compounds 1-10 on the viability of the epithelial cancer cell lines, exponentially growing cells, BT-474, JIMT-1, MDA-MB-231 (breast), DU145, PC3 (prostate), MiaPaCa2 (pancreas) were incubated with varying concentrations of 1-8 (0-30 μM) for 48 h followed by viability assays with the MTS reagent.
as §3

[2] = Table 1A, 48 h, read-out: CC50 values MD 231
[3] = Table 1B, 48 h, read-out: CC90 values MD 231
[4] = Table 1A, 48 h, read-out: CC50 values DU 145
[5] = Table 1B, 48 h, read-out: CC90 values DU 145
[6] = Table 1A, 48 h, read-out: CC50 values MiaPaCa2
[7] = Table 1B, 48 h, read-out: CC90 values MiaPaCa2
[8] = Table 1A, 48 h, MTS, read-out: CC50 values PC3
[9] = Table 1B, 48 h, MTS, read-out: CC90 values PC3
[10] = range over the cell lines tested, 48 h
[11] = Homo sapiens, MDA-MB-231, Table 5, 48 h, read-out: CC50 MDA-MB-231
[12] = Homo sapiens, MDA-MB-231, Table 5, 48 h, read-out: CC90 MDA-MB-231
[13] = Homo sapiens, DU-145, Table 5, 48 h, read-out: CC50 DU-145
[14] = Homo sapiens, DU-145, Table 5, 48 h, read-out: CC90 DU-145
[15] = Homo sapiens, MIA PaCa-2, Table 5, 48 h, read-out: CC50 Mlapaca2
[16] = Homo sapiens, MIA PaCa-2, Table 5, 48 h, read-out: CC90 Mlapaca2
[17] = Homo sapiens, PC-3, Table 5, 48 h, MTS, read-out: CC50 PC3
[18] = Homo sapiens, PC-3, Table 5, 48 h, MTS, read-out: CC90 PC3
[19] = Homo sapiens, range over the cell lines tested, 48 h

| Compound | CC50 (MDA-MB-231 cells; [2]) [µM] | CC90 (MDA-MB-231 cells; [3]) [µM] | CC50 (DU145 cells; [4]) [µM] | CC90 (DU145 cells; [5]) [µM] | CC50 (MiaPaCa2 cells; [6]) [µM] | CC90 (MiaPaCa2 cells; [7]) [µM] | CC50 (PC3 cells; [8]) [µM] | CC90 (PC3 cells; [9]) [µM] | CC50 [1, 10] [µM] | CC50 (MDA-MB-231 cells; [11]) [µM] | CC90 (MDA-MB-231 cells; [12]) [µM] | CC50 (DU145 cells; [13]) [µM] | CC90 (DU145 cells; [14]) [µM] | CC50 (MiaPaCa2 cells; [15]) [µM] | CC90 (MiaPaCa2 cells; [16]) [µM] | CC50 (PC3 cells; [17]) [µM] | CC90 (PC3 cells; [18]) [µM] | CC50 [1, 19] [µM] | further results |
| --- | --- | --- | --- | --- | --- | --- | --- | --- | --- | --- | --- | --- | --- | --- | --- | --- | --- | --- | --- |
| CCCCCCCCCCCCCCCCOCCCO[C@@H]1O[C@H](CN)[C@@H](O)[C@H](O)[C@H]1N [Compound 4, 1-O-Hexadecyl-2-deoxy-3-O-(2′6′-diamino-2′,6′-dideoxy-β-D-glucopyranosyl)-sn-glycerol] | 4.5 | 7 | 6 | 8.5 | 6.5 | 13 | 8 | 14 | 4 to 8.5 | – | – | – | – | – | – | – | – | – | – |
| CCCCCCCCCCCCCCCCOC[C@H](CO[C@H]1O[C@H](CN)[C@@H](O)[C@H](O)[C@H]1N)OC [Compound 1, 1-O-Hexadecyl-2-O-methyl-3-O-(2′,6′-diamino-2′,6′-dideoxy-α-D-glucopyranosyl)-sn-glycerol] | – | – | – | – | – | – | – | – | – | 3 | 4.5 | 5.2 | 7.4 | 3.5 | 6.5 | 3.5 | 6 | 3 to 7.5 | CC50 (MDA-MB-231 cells; Homo sapiens, MDA-MB-231, Table 1A, 48 h, read-out: CC50 values MD 231): 3 µM; CC90 (MDA-MB-231 cells; Homo sapiens, MDA-MB-231, Table 1B, 48 h, read-out: CC90 values MD 231): 4.5 µM; CC50 (DU145 cells; Homo sapiens, DU-145, Table 1A, 48 h, read-out: CC50 values DU 145): 5.2 µM; CC90 (DU145 cells; Homo sapiens, DU-145, Table 1B, 48 h, read-out: CC90 values DU 145): 7.4 µM; CC50 (MiaPaCa2 cells; Homo sapiens, MIA PaCa-2, Table 1A, 48 h, read-out: CC50 values MiaPaCa2): 3.5 µM; CC90 (MiaPaCa2 cells; Homo sapiens, MIA PaCa-2, Table 1B, 48 h, read-out: CC90 values MiaPaCa2): 6.5 µM; CC50 (PC3 cells; Homo sapiens, PC-3, Table 1A, 48 h, MTS, read-out: CC50 values PC3): 3.5 µM; CC90 (PC3 cells; Homo sapiens, PC-3, Table 1B, 48 h, MTS, read-out: CC90 values PC3): 6 µM; CC90 ([1]; Homo sapiens, range over the cell lines tested, 48 h, read-out: CC90 (90% loss of cell viability), range depending on cell lines): 4.5 to 9.5 µM |
| CCCCCCCCCCCCCCCCOC[C@@H](CN=[N+]=[N-])O[C@@H]1O[C@H](CO)[C@@H](O)[C@H](O)[C@H]1N [Compound 6, 1-O-Hexadecyloxy-2R-(2′-amino-2′-deoxy-β-D-glucopyranosyl)-3-azido glycerol] | 11 | 15 | 12.5 | 18 | 11.5 | 18.5 | 6 | 15 | 6 to 22 | – | – | – | – | – | – | – | – | – | CC50 (PC3 cells; read-out: CC50 against PC-3 cell lines): 6 µM |
| CCCCCCCCCCCCCCCCOC[C@H](COC1O[C@H](CNCCCCCCCCCCCCN)[C@@H](O)[C@H](O)[C@H]1N)OC (stereo partly shown) [Compound 73, 1-O-Hexadecyl-2-O-methyl-3-O-[6′-N-(12-aminododecyl)-2′,6′-diamino-2′,6′-dideoxy-glucopyranoside]-sn-glycerol] | – | – | – | – | – | – | – | – | 1.5 to 4 | – | – | – | – | – | – | – | – | – | CC50 (MDA-MB-231 cells; Table 6, 48 h, read-out: MB-MDA-231 CC50): 1.5 µM; CC90 (MDA-MB-231 cells; Table 6, 48 h, read-out: MB-MDA-231 CC90): 3.8 µM; CC50 (DU145 cells; Table 6, 48 h, read-out: DU145 CC50): 3.8 µM; CC90 (DU145 cells; Table 6, 48 h, read-out: DU145 CC90): 4.8 µM; CC50 (MiaPaCa2 cells; Table 6, 48 h, read-out: MiaPaCa2 CC50): 4 µM; CC90 (MiaPaCa2 cells; Table 6, 48 h, read-out: MiaPaCa2 CC90): 6.6 µM; CC50 (PC3 cells; Table 6, 48 h, MTS, read-out: PC3 CC50): 2 µM; CC90 (PC3 cells; Table 6, 48 h, MTS, read-out: PC3 CC90): 3.2 µM; cytotoxicity against all cell lines examined ([1]; tricationic GAELs, FIG. 2O, Table 6): cytotoxic |
| CCCCCCCCCCCCCCCCOCC(CO[C@@H]1O[C@H](CN)[C@@H](O)[C@H](O)[C@H]1N)O[C@@H]1O[C@H](CN)[C@@H](O)[C@H](O)[C@H]1N (stereo partly drawn) [Compound 5, 1-O-Hexadecyloxy-2S/R, 3-di(-2′,6′-diamino-2′, 6′-dideoxy-β-D-glucopyranosyl)-glycerol] | > 30 | > 30 | > 30 | > 30 | > 30 | > 30 | > 30 | > 30 | > 30 | – | – | – | – | – | – | – | – | – | – |
| CCCCCCCCCCCCCCCCOCC(CO[C@@H]1OC(CO)[C@H](O)[C@H](O)C1N)OC (stereo partly shown) [Compound 69] | – | – | – | – | – | – | – | – | – | 11 | 17 | 12.5 | 16 | 7.5 | 18 | 12.5 | 16 | 6.5 to 12.5 | CC50 (MDA-MB-231 cells; Homo sapiens, MDA-MB-231, Table 2A, 48 h, read-out: CC50 values MDA-MB-231): 11 µM; CC90 (MDA-MB-231 cells; Homo sapiens, MDA-MB-231, Table 2B, 48 h, read-out: CC90 values MDA-MB-231): 17 µM; CC50 (DU145 cells; Homo sapiens, DU-145, Table 2A, 48 h, read-out: CC50 values DU 145): 12.5 µM; CC90 (DU145 cells; Homo sapiens, DU-145, Table 2B, 48 h, read-out: CC90 values DU 145): 16 µM; CC50 (MiaPaCa2 cells; Homo sapiens, MIA PaCa-2, Table 2A, 48 h, read-out: CC50 values MiaPaCa2): 7.5 µM; CC90 (MiaPaCa2 cells; Homo sapiens, MIA PaCa-2, Table 2B, 48 h, read-out: CC90 values MiaPaCa2): 18 µM; CC50 (PC3 cells; Homo sapiens, PC-3, Table 2A, 48 h, MTS, read-out: CC50 values PC3): 12.5 µM; CC90 (PC3 cells; Homo sapiens, PC-3, Table 2B, 48 h, MTS, read-out: CC90 values PC3): 16 µM |
